Measured values: patent publication US7795427B2, “Methods for inhibiting osteoclast differentiation, formation, or function and for increasing bone mass” (New York University, priority 2006, dated 2010)
Entries after “also recorded” stand apart in the source; their conditions may differ.

What was measured:
[1] = test system: RANKL-induced NF-κB signaling; experiment: RANKL-induced NF-κB signaling in osteoclast precursors (Western blot of cytoplasmic and nuclear fractions); format: cell-based, mouse; set-up: dose or concentration left out as unconfirmed; conditions: M-CSF and RANKL
osteoclast precursors = experiment: Osteoclast formation with DPCPX added at different days of culture; format: cell-based, mouse
Experimental: FIG. 5. DPCPX Inhibits Osteoclastogenesis by Acting on Osteoclast Precursors. […] After culture for 7 days with DPCPX, cells were stained for TRAP. Results are expressed as the mean±SEM of three cultures per variable. […] TRAP is preferentially expressed at high levels in osteoclasts and is considered, especially in the mouse, to be an osteoclast marker. After incubation, cells on wells were washed in PBS, fixed in 4% paraformaldehyde for 10 min, and stained for acid phosphatase in the presence of 0.3 M sodium tartrate (Sigma-Aldrich). The substrate used was napthol AS-BI phosphate (Sigma-Aldrich). Only those cells that were strongly TRAP-positive (dark red) and have more than 3 nuclei were counted by light microscopy. To determine at which stage DPCPX inhibits osteoclast differentiation, osteoclast precursors were incubated with M-CSF, RANKL and DPCPX was added on day 0, 3 and 6. After culture for a total of 7 days with DPCPX, TRAP-positive multinucleated cells were enumerated.

bone marrow cells = experiment: RANKL-induced osteoclast formation from bone marrow cells (TRAP-positive MNC count); format: cell-based, mouse; conditions: for osteoclast formation: M-CSF and RANKL
Text: FIG. 1. Effect of DPCPX on osteoclast formation by bone marrow cells. […] After 7 days cells were fixed and stained for TRAP, and the number of TRAP-positive MNCs per well was scored. (Similar results were obtained in three independent experiments). Bone marrow cells were isolated from 5- to 8-wk-old C57BL/6 female mice. Femurs and tibiae were aseptically removed and dissected free of adherent soft tissues. The bone ends were cut, and the marrow cavity was flushed out with medium αMEM from one end of the bone using a sterile 21-gauge needle. The bone marrow suspension was carefully agitated with a plastic Pasteur pipette to obtain a single-cell suspension. The cells were washed twice and resuspended (3.75×10^5 cells/ml) in α MEM containing 10% FBS, and this suspension was added to 24-well plates (500 μl/well). To each of these wells an additional 500 μl of medium containing M-CSF (30 ng/ml) and RANKL (30 ng/ml) without or with various concentrations of DPCPX and N6-CPA were added. Cultures were fed every 3 days by replacing 500 μl of culture medium with an equal quantity of fresh medium and reagents. After incubation for 7 days, wells were prepared for tartrate-resistant acid phosphatase (TRAP) staining. The number of TRAP-positive multinucleated cells (MNCs) containing three or more nuclei was scored. Osteoclast formation was evaluated by quantification of Tartrate-Resistant Acid Phosphatase (TRAP)-positive multinucleated cells (MNCs) using a modification of the method of Burstone. […] TRAP is preferentially expressed at high levels in osteoclasts and is considered, especially in the mouse, to be an osteoclast marker. After incubation, cells on wells were washed in PBS, fixed in 4% paraformaldehyde for 10 min, and stained for acid phosphatase in the presence of 0.3 M sodium tartrate (Sigma-Aldrich). The substrate used was napthol AS-BI phosphate (Sigma-Aldrich). Only those cells that were strongly TRAP-positive (dark red) and have more than 3 nuclei were counted by light microscopy.

[2] = test system: ovariectomized C57BL/6 mice; experiment: Bone loss due to ovariectomy (microCT); format: in vivo, mouse; conditions: OVX C57BL/6 mice, DPCPX 50 mg/kg/d oral in water, 5 weeks
Experimental: FIG. 12. Effects of the A1R Antagonist DPCPX on Bone Loss Due to Ovariectomy. […] Data are expressed as percent change relative to sham-operated vehicle-treated control mice. 6 Week old C57bl/6 female mice received ovariectomy or a sham procedure in which the ovaries were exteriorized but not removed. Mice were sacrificed 5 weeks after the surgical procedure. Mice were treated with either water alone or DPCPX dissolved in water and adjusted, based on the weight of the animals, to a dose of 50 mg/kg/d. Femoral μCT was measured as described (Hildebrand […] new method for the model-independent assessment of thickness in three-dimensional images. J Microsc 1997; 185:67-75) by using a MS-8 (MS-8, GE Healthcare, London, Ontario, Canada) at 18 μm isotropic resolution-scans calibrated by air, water and a mineral standard material phantom/Parker algorithm for digital reconstruction.

PU.1 mRNA = experiment: RT-PCR of PU.1 mRNA in osteoclast precursors; format: cell-based, mouse; conditions: DPCPX 1 μM, M-CSF and RANKL, 7 days
Text: (§1) FIG. 7. […] I.D. NO: 21); c-Fos antisense [NT]. I.D. NO: 22); PU.1.- sense [NT]. I.D. NO: 23); PU.1 antisense [NT]. […] I.D. NO: 10).

c-Fos mRNA = experiment: RT-PCR of c-Fos mRNA in osteoclast precursors; format: cell-based, mouse; conditions: DPCPX 1 μM, M-CSF and RANKL, 7 days
Text: as §1

murine splenocytes = experiment: RANKL-induced osteoclast formation by splenocytes (TRAP-positive MNC count); format: cell-based, mouse; conditions: for osteoclast formation: M-CSF and RANKL
Experimental: FIG. 4. Effect of DPCPX on osteoclast formation by Splenocytes. […] After 7 days cells were fixed and stained for TRAP, and the number of TRAP-positive MNCs per well was scored. (Similar results were obtained in three independent experiments). Splenocytes were isolated from 5- to 8-wk-old C57BL/6 female mice aspreviously described with modification. In brief, spleens were putted on top of 100 μm cell strainer in 50 ml falcon, mashed with plunger and rinsed the released cells through the strainer with 8 ml PBS. The nonadherent cells were layered on top of the lymphocyte separation medium. The cells were spin 1500 rpm for 20 minutes. The macrophages/lymphocyte white band was located about 1 cm below the top of the LSM. The PBS was aspirated until 1 ml above the band then 1 ml was removing to 50 ml Falcon including the band. To this Falcon 19 ml PBS was added and spine 1500 rpm for 15 minutes. PBS was removed and 10 ml αMEM was added. The cells were resuspended (3×10^5 cells/ml) in αMEM containing 10% FBS, and this suspension was added to 24-well plates ([…]) as described above. […] TRAP is preferentially expressed at high levels in osteoclasts and is considered, especially in the mouse, to be an osteoclast marker. After incubation, cells on wells were washed in PBS, fixed in 4% paraformaldehyde for 10 min, and stained for acid phosphatase in the presence of 0.3 M sodium tartrate (Sigma-Aldrich). The substrate used was napthol AS-BI phosphate (Sigma-Aldrich). Only those cells that were strongly TRAP-positive (dark red) and have more than 3 nuclei were counted by light microscopy.

TRAF6 = TRAF6 level in cells under A1 receptor blockade (other studies, data not shown); format: cell-based; conditions: adenosine A1 receptors blocked by DPCPX (data not shown)
[3] = DPCPX 3 days (per FIG. 8 legend)
[4] = M-CSF and DPCPX without RANKL (data not shown)
[5] = increasing concentrations of DPCPX added day 0 with M-CSF and RANKL (30 ng/ml each), 7 days

CCCn1c(=O)c2[nH]c(C3CCCC3)nc2n(CCC)c1=O [DPCPX, 8-cyclopentyl-1,3-dipropylxanthine]
cytoplasmic p50 and p65 [1, 3]: accumulate in the cytoplasm | nuclear translocation of p50 and p65 [1, 3]: totally prevents | RANKL-induced degradation of IκB ([1]; DPCPX treatment for 3 days (per FIG. 8 legend)): inhibited | osteoclast formation (osteoclast precursors; DPCPX added on day 0, total culture 7 days): inhibited | osteoclast formation (osteoclast precursors; DPCPX addition delayed (day 3, day 6), total culture 7 days): inhibition decreased | osteoclast formation (bone marrow cells; DPCPX 1 nM, 7 days): significantly inhibit | osteoclast formation (bone marrow cells; DPCPX 1 μM, 7 days): complete inhibition | TRAP-positive cells in the absence of RANKL (bone marrow cells; [4]): no TRAP-positive cells were seen | number of TRAP-positive cells (bone marrow cells; [5]): strikingly inhibited the number of TRAP-positive cells in a dose-dependent manner | bone mass / trabecular bone volume (bone volume/total volume) following ovariectomy [2]: did not lose bone mass; also recorded: prevents ovariectomy-induced bone loss | PU.1 mRNA expression (PU.1 mRNA): does not affect | c-Fos mRNA expression (c-Fos mRNA): does not affect | osteoclast formation (murine splenocytes; DPCPX 1 nM, 7 days): significantly inhibited | osteoclast formation (murine splenocytes; DPCPX 1 μM, 7 days): almost complete inhibition | TRAP-positive cells in the absence of RANKL (murine splenocytes; [4]): no TRAP-positive cells were seen | number of TRAP-positive multinucleated cells (murine splenocytes; [5]): strikingly diminished the number of TRAP-positive multinucleated cells in a dose-dependent manner | TRAF6 in the cell (TRAF6): is lost from the cell
